{"source": "patent US12491209B2", "about": "“Dissolved C60 and method of producing dissolved C60” (Innovation for Success, LLC, priority 2019, dated 2025)", "key": {"[1]": {"conditions": "per single C60 molecule; cited from earlier work"}, "[2]": {"conditions": "cited from earlier work"}, "[3]": {"conditions": "C60 molecules diffuse out of the body; cited from earlier work"}, "IgE": {"system": "IgE", "conditions": "animal models, applied topically; cited from earlier work"}, "[4]": {"test": "Solubility of C60 in limonene composition / d-limonene by heating method 200", "type": "physicochemical", "text": "As shown in the flowchart of FIG. 2 and with additional reference to FIG. 3, a method 200 for dissolving C60 304 in a liquid medium that is non-toxic and safe for human consumption includes combining C60 304 with a limonene composition 308 to form a C60 mixture 312. (Block 204). The limonene composition 308 is discussed in connection with the method 200, but the limonene composition 308 may be substituted with orange terpenes or other edible and non-toxic terpenes (or terpene containing liquids). The limonene composition 308 is used over orange terpenes, because the limonene composition 308 has a more pleasant and less bitter taste. In one embodiment, the limonene composition 308 is at least 95% d-limonene by volume, with the remaining 5% including any other liquid, such as limonene, flavoring, fragrances, and the like. In another embodiment, the limonene composition 308 is at least 75% d-limonene with the remaining 25% including any other liquid, such as limonene, flavoring, fragrances, and the like.\nAt block 204 of the method 200, the C60 304 is pulverized into a powdered form and combined with the liquid limonene composition 308 in a glass vessel (not shown) or any other heat-safe and non-reactive container. Additionally or alternatively, the C60 304 is not pulverized and is added to the limonene composition 308 in granular, chunky, or crystalline state. […]"}}, "note": "Where two headings read alike, the source gives them in different places."}
{"smiles": "c12c3c4c5c1c1c6c7c2c2c8c3c3c9c4c4c%10c5c5c1c1c6c6c%11c7c2c2c7c8c3c3c8c9c4c4c9c%10c5c5c1c1c6c6c%11c2c2c7c3c3c8c4c4c9c5c1c1c6c2c3c41", "note": "[C60, Buckminsterfullerene]", "values": [{"measurement": "free electrons / methyl radicals absorbed per C60 molecule", "setting": "[1]", "result": "up to thirty-four"}, {"measurement": "Solubility Limit", "setting": "[2]; solvent 1,2-dichlorobenzene", "result": 27000, "unit": "µg/mL"}, {"measurement": "Solubility Limit", "setting": "[2]; solvent 1-chloronaphthalene", "result": 41000, "unit": "µg/mL"}, {"measurement": "Solubility Limit", "setting": "[2]; solvent 1-methylnaphthalene", "result": 33000, "unit": "µg/mL"}, {"measurement": "Solubility Limit", "setting": "[2]; solvent acetone", "result": 1, "unit": "µg/mL"}, {"measurement": "Solubility Limit", "setting": "[2]; solvent anisole", "result": 5600, "unit": "µg/mL"}, {"measurement": "Solubility Limit", "setting": "[2]; solvent benzene", "result": 1700, "unit": "µg/mL"}, {"measurement": "Solubility Limit", "setting": "[2]; solvent benzonitrile", "result": 410, "unit": "µg/mL"}, {"measurement": "Solubility Limit", "setting": "[2]; solvent carbon disulfide", "result": 7900, "unit": "µg/mL"}, {"measurement": "Solubility Limit", "setting": "[2]; solvent carbon tetrachloride", "result": 447, "unit": "µg/mL"}, {"measurement": "Solubility Limit", "setting": "[2]; solvent chloroform", "result": 160, "unit": "µg/mL"}, {"measurement": "Solubility Limit", "setting": "[2]; solvent cyclohexane", "result": 36, "unit": "µg/mL"}, {"measurement": "Solubility Limit", "setting": "[2]; solvent decalins", "result": 4600, "unit": "µg/mL"}, {"measurement": "Solubility Limit", "setting": "[2]; solvent dichloromethane", "result": 260, "unit": "µg/mL"}, {"measurement": "Solubility Limit", "setting": "[2]; solvent ethanol", "result": 1.4, "unit": "µg/mL"}, {"measurement": "Solubility Limit in mg/ml", "setting": "[2]; solvent isopropanol", "result": "ND (“ND” indicates that C60 in insoluble in the identified solvent)"}, {"measurement": "Solubility Limit in mg/ml", "setting": "[2]; solvent methanol", "result": "ND (“ND” indicates that C60 in insoluble in the identified solvent)"}, {"measurement": "Solubility Limit", "setting": "[2]; solvent n-decane", "result": 71, "unit": "µg/mL"}, {"measurement": "Solubility Limit", "setting": "[2]; solvent n-hexane", "result": 43, "unit": "µg/mL"}, {"measurement": "Solubility Limit", "setting": "[2]; solvent n-pentane", "result": 5, "unit": "µg/mL"}, {"measurement": "Solubility Limit", "setting": "[2]; solvent octanol", "result": 42.9, "unit": "µg/mL"}, {"measurement": "Solubility Limit", "setting": "[2]; solvent tetrachloromethane", "result": 320, "unit": "µg/mL"}, {"measurement": "Solubility Limit in mg/ml", "setting": "[2]; solvent tetrahydrofuran", "result": "ND (“ND” indicates that C60 in insoluble in the identified solvent)"}, {"measurement": "Solubility Limit", "setting": "[2]; solvent tetralin", "result": 16000, "unit": "µg/mL"}, {"measurement": "Solubility Limit", "setting": "[2]; solvent toluene", "result": 2800, "unit": "µg/mL"}, {"measurement": "Solubility Limit", "setting": "[2]; solvent water", "result": "1.3e-08", "unit": "µg/mL"}, {"measurement": "Solubility Limit", "setting": "[2]; solvent xylene", "result": 5200, "unit": "µg/mL"}, {"measurement": "residence time in the body", "setting": "[3]", "result": "about five"}, {"measurement": "IgE reduction", "setting": "IgE", "result": "reduce IgE significantly"}, {"measurement": "dissolution of C60 into the limonene composition without heating", "setting": "[4]; room temperature 70° F. (21° C.)", "result": "does not dissolve to any significant extent"}, {"measurement": "Solubility Limit", "setting": "[4]; solvent d-limonene, results achieved by method 200", "result": 16.67, "unit": "mg/mL"}]}
